Source: patent US8252832B2, “Kinesin inhibitors as cancer therapeutics” (Novartis AG, priority 2007, dated 2012)
“And” between values parts separate entries of the source, which are not always exact repeats. Identical values can stand only once.

Key:
Assay type in all cases: in vivo, mouse
[1] = Subcutaneous MV4; 11 tumor xenograft model, host response
Procedure: Subcutaneous tumor efficacy studies were performed using outbred athymic nu/nu mice approximately 6-8 weeks old (Charles River Laboratories, Hollister, Calif.). The efficacy study in the disseminated disease model was performed using immunodeficient NOD-SCID female mice approximately 7-8 weeks old (Jackson Laboratories, Bar Harbor, Me.). […] Routine animal care and assurance of welfare were as described above.
The compound IIa (free base) and SB-715992 (free base) were formulated in 20% Captisol for a dose volume of 8 mL/kg. Doses were adjusted to each animal's body weight.
For the two efficacy evaluations in the subcutaneous tumor model, 10 million cells combined in a 1:1 mixture of HBSS and Matrigel™ were injected subcutaneously in the right flank in a total volume of 0.2 mL/mouse. […] Tumor volume was calculated as (L×W2)/2.

HCT116 tumor xenograft = HCT116 tumor xenograft model, tumor response; settings: i.v.
Procedure: The cell line HCT-116 has been widely used in the evaluation of mitotic inhibitors such as microtubule disruptors, mitotic kinase inhibitors and KSP inhibitors. […] Experiments were performed using outbred athymic nu/nu mice approximately 6-8 weeks old (Charles River Laboratories, Hollister, Calif.). […] Mice were housed 4-5 animals per cage in clear polycarbonate micro-isolator cages with a 12-hour light, 12-hour dark cycle at temperatures between 70-80 degrees Fahrenheit and 30-70% relative humidity. Food (Purina rodent chow pellets) and water were provided ad libitum. Mice were handled in accordance with Novartis ACUC regulations and guidelines and the ILAR Guide for the Care and Use of Laboratory Animals. Experiments were performed in an AAALAC accredited facility under an ACUC approved protocol.
Compound IIa (free base) and SB-715992 (ispinesib, a KSP inhibitor by Cytokinetics that is in clinical trials; as its free base) were formulated in 20% Captisol® for all the above doses for a dose volume of 8 mL/kg. Doses were adjusted to each animal's body weight.
Human HCT116 colon carcinoma cells were obtained from the National Cancer Institute's DCTD Tumor Repository (catalog #NCI-502568, Rockville, Md.) and tested to be free of Mycoplasma sp. and murine viruses in the IMPACT1 PCR assay panel (RADIL, University of Missouri, Columbia, Mo.). HCT116 cells were grown in RPMI 1640 with 2 mM L-glutamine (Mediatech Inc., catalog #15-040-CV) supplemented with 10% fetal bovine serum (JRH Biosciences, catalog #12003-1000M). These cells were grown as adherent cultures, maintained at 37° C. in a humidified atmosphere containing 5% carbon dioxide. Cells were cultured for fewer than 10 passages prior to use. Cells were harvested at 95% confluency, and centrifuged at ˜800×g for 5 minutes at 4° C. and then resuspended in a cold HBSS (Mediatech Inc., catalog #21-021-CV) at a concentration of 50 million cells/mL for implantation subcutaneously (injection volume of 0.1 mL).
Female nu/nu mice (Charles River, Hollister, Calif.) were injected subcutaneously in the right flank with 5 million HCT-116 tumor cells suspended in Hank's Balanced Salt Solution (HBSS) in a total volume of 0.1 mL/mouse. For the efficacy studies, mice were randomized 10 days post-implant. […] Tumor volume was calculated as (L×W2)/2. […] Percent treatment/control (T/C) values were calculated using the following formula: % T/C=100×ΔT/ΔC
All data were expressed as mean and SEM. Between-groups comparisons for final tumor measurements were performed using the one-way ANOVA pair-wise analysis. Significance was determined using Kruskal-Wallis one-way ANOVA on Ranks and Dunn's method for multiple pair-wise comparisons. Statistical analysis was carried out using SigmaStat (Systat Software Inc., San Jose, Calif.).

[2] = system: human multiple myeloma KMS-11-luc tumor xenografts; assay: Subcutaneous KMS-11-luc tumor xenograft model, tumor response; settings: 7.5 mg/kg, Q4d × 3, i.v.
Procedure: Experiments were performed using immunodeficient SCID-Beige female mice approximately 7-8 weeks old (Charles River Laboratories, Wilmington, Mass.). […] Routine animal care and assurance of welfare were as described above.
Human KMS-11-luc multiple myeloma cells were obtained from the laboratory of Suzanne Trudel at the University of Toronto (Ontario, Canada) and tested to be free of Mycoplasma sp. and murine viruses in the IMPACT1 PCR assay panel (RADIL, University of Missouri, Columbia, Mo.). Prior to our receiving this cell line, it had been stably engineered to express luciferase by retroviral transfection of the pGC-gfp/luc vector. KMS-11-luc cells were grown in Iscove's medium supplemented with 2 mmol/L L-glutamine (Mediatech, Inc., Hemdon, Va.) and 10% fetal bovine serum (JRH Biosciences, catalog #12003-1000M). These cells were grown as suspension cultures, maintained at 37° C. in a humidified atmosphere containing 5% carbon dioxide. Cells were cultured for fewer than 10 passages prior to use. Cells were harvested at approximately 2 million cells/mL, and centrifuged at ˜800×g for 5 minutes at 4° C. and then resuspended in a 1:1 mixture of cold Hank's balanced salt solution (HBSS) and Matrigel™ (Mediatech Inc., catalog #21-021-CV; BD Biosciences, catalog #354234, respectively) at a concentration of 50 million cells/mL for implantation subcutaneously (injection volume of 0.2 mL). Alternatively, for the disseminated disease model, cells were prepared only in cold HBSS at a concentration of 100 million cells/mL for intravenous (i.v.) implantation via the tail vein (injection volume of 0.1 mL).
Compound IIa and SB-715992 (free base) were formulated in 20% Captisol for a dose volume of 8 mL/kg. Doses were adjusted to each animal's body weight.
For the efficacy evaluation in the subcutaneous tumor model, 10 million cells combined in a 1:1 mixture of HBSS and Matrigel™ were injected subcutaneously in the right flank in a total volume of […]. […] Tumor volume was calculated as (L×W2)/2. […] Data analysis was as described above.

[3] = Study 2, 1.8 mg/kg, Q4d × 3, i.v, D10
[4] = Study 2, 3.5 mg/kg, Q4d × 3, i.v, D3
[5] = Study 2, 7.5 mg/kg, Q4d × 3, i.v, D10

Cc1ccc(C(=O)N(CCCN)[C@@H](c2nc3cc(Cl)ccc3c(=O)n2Cc2ccccc2)C(C)C)cc1 [SB-715992, Ispinesib, reference compound]
Survival (alive/total) ([1]; 15 mg/kg, q4d × 3, i.v., (body weight loss)): 7/9 (body | % Max. Δ body weight, (Day) ([1]; 15 mg/kg, q4d × 3, i.v., D3): −5.6 ± 1.1% | Max Δ body weight (g) (Day) ([1]; 15 mg/kg, q4d × 3, i.v., D3): -1.4 ± 0.3 g | Survival (alive/total) ([1]; Study 2, 1.8 mg/kg, Q4d × 3, i.v): 9/9 | % Max. Δ body weight, (Day) [1, 3]: 2.0 ± 1.0, % | Max. Δ body weight (g) (Day) [1, 3]: 0.5 ± 0.4, g | Survival (alive/total) ([1]; Study 2, 3.5 mg/kg, Q4d × 3, i.v): 9/9 | % Max. Δ body weight, (Day) [1, 4]: 0.7 ± 0.3, % | Max. Δ body weight (g) (Day) [1, 4]: 0.2 ± 0.3, g | Survival (alive/total) ([1]; Study 2, 7.5 mg/kg, Q4d × 3, i.v): 9/9 | % Max. Δ body weight, (Day) [1, 5]: −1.4 ± 1.3, % | Max. Δ body weight (g) (Day) [1, 5]: −0.4 ± 0.8, g | T/C, Day 24 (%) (HCT116 tumor xenograft; 1.75 mg/kg, q4d × 3): 36% | Δ Tumor volume, Day 24 (HCT116 tumor xenograft; 1.75 mg/kg, q4d × 3): 395 ± 84 mm^3 | T/C, Day 17 (%) (HCT116 tumor xenograft; 3.5 mg/kg, q4d × 3): 5% | T/C, Day 24 (%) (HCT116 tumor xenograft; 3.5 mg/kg, q4d × 3): 15% | Δ Tumor volume, Day 17 (HCT116 tumor xenograft; 3.5 mg/kg, q4d × 3): 39 ± 4 mm^3 | Δ Tumor volume, Day 24 (HCT116 tumor xenograft; 3.5 mg/kg, q4d × 3): 165 ± 60 mm^3 | Max. % Regression (Day) (HCT116 tumor xenograft; 3.5 mg/kg, q4d × 3, D7): 13% | Max. % Regression (Day) (HCT116 tumor xenograft; 3.5 mg/kg, q4d × 3, D11): 10% | Δ Tumor volume, Day 17 (HCT116 tumor xenograft; 7.5 mg/kg, q4d × 3): −177 ± 55 mm^3 | Δ Tumor volume, Day 24 (HCT116 tumor xenograft; 7.5 mg/kg, q4d × 3): −145 ± 25 mm^3 | Max. % Regression (Day) (HCT116 tumor xenograft; 7.5 mg/kg, q4d × 3, D17): 65% | Max. % Regression (Day) (HCT116 tumor xenograft; 7.5 mg/kg, q4d × 3, D21): 65% | Δ Tumor volume, Day 17 (HCT116 tumor xenograft; 15 mg/kg, q4d × 3 (only first two doses given)): −205 ± 24 mm^3 | Max. % Regression (Day) (HCT116 tumor xenograft; 15 mg/kg, q4d × 3 (only first two doses given), D20): 73% | Δ Tumor volume, Day 31 [2]: −46 ± 19 mm^3 | Max. % Regression (Day) ([2]; D14): 49% and 49, (D14) %
